Assay results from patent US20180296531A1, “STIMULATION OF 11B-HSD2 EXPRESSION TO IMPROVE HORMONAL THERAPY OF STEROID-DEPENDENT DISEASE” (THE CLEVELAND CLINIC FOUNDATION, priority 2015, published 2018).

Assays:
[1] = test system: LAPC4 cells; assay: Cell viability assay (CellTiter-Glo); format: cell-based, human
Protocol: LAPC4 cells or the long-term Enz treated LAPC4 cells were plated in triplicate in 96 well plates coated with poly-DL-ornithine and incubated overnight, then treated with Enz and assayed in triplicate at the time points indicated using CellTiter-Glo (Promega). Viability is normalized to day 0.

[2] = test system: AR-regulated transcripts; assay: qPCR of AR-regulated transcripts; format: cell-based, human; settings: LAPC4, 24 hours
Protocol: (§1) LAPC4 cells were treated with Enz for 36 days and then seeded into 12 well plates coated with poly-DL-ornithine at 50% confluence. After incubation overnight, the cells were transfected with 11β-HSD2-FLAG plasmid for 48 hours by using the TranslT®-2020 Transfection Reagent (Mirus) according to the protocol provided by the manufacturer, then maintained in phenol-red-free medium with 5% Charcoal:Dextran-stripped FBS for 48 hours before being treated with the indicated drugs. Total RNA was extracted with a GenElute Mammalian Total RNA miniprep kit (Sigma-Aldrich) and 1 μg RNA was reverse-transcribed to cDNA with the iScript cDNA Synthesis Kit (Bio-Rad). An ABI 7500 Real-Time PCR machine (Applied Biosystems) was used to perform the qPCR analysis, using iTaq Fast SYBR Green Supermix with ROX (Bio-Rad) in 96-well plates at a final reaction volume of 10 μl. The qPCR analysis was carried out in triplicate with suitable primers. Each mRNA transcript was quantitated by normalizing the sample values to RPLP0 and to vehicle treated cells (for steroid treated cells). All gene expression studies were repeated in independent experiments.

[3] = test system: GR, HSD11B2, HSD11B1 transcripts; assay: qPCR of GR, HSD11B2 and HSD11B1 transcripts; format: cell-based, human
Protocol: as §1

[4] = test system: tumor corticosterone; assay: Mass spectrometry of corticosterone in xenograft tumors; format: in vivo, mouse
Protocol: Xenograft analysis. At least 24 mg tumor tissue (n=18) was homogenized with 1 ml LC-MS grade water (Fisher) by using homogenizer. The mixture was then centrifuged. 800 μl of the supernatant was transferred to a glass tube, followed by the addition of 80 μl of 10 ng/ml internal standard (corticosterone-d8) (Steraloids). The steroids and the internal standard were extracted with methyl tert butyl ether (Across) evaporated to dryness under N2 then reconstituted with 500 μl of 50% methanol.
The LC-MS/MS system contains an ultra-pressure liquid chromatography system (Shimadzu Corporation, Japan) which is consisted of two LC-30AD pumps, a DGU-20A5R degasser, a CTO-30A column oven, SIL-30AC autosampler, and a system controller CBM-20A and coupled with a Qtrap 5500 mass spectrometer (AB Sciex). Data acquisition and processing were performed using Analyst® software (version 1.6.2) from ABSciex.
Steroids were ionized using electrospray ionization in positive mode. Quantification of analytes was performed using multiple reaction monitoring. The mass transitions for corticosterone, 11-dehydrocorticosterone, and internal standard are 347.3/121.0, 345.3/121.0, and 355.3/125.0, respectively. Separation of steroids was achieved using a Zorbax Eclipse plus C18 column (Agilent) using mobile phase consisting of (A) 0.2% formic acid in water and (B) 0.2% formic acid in (methanol:acetonitrile, 60:40) with a gradient program at a flow rate of 0.2 ml/min. Sample injection volume was 10 μl.

[5] = test system: AMFR; assay: Immunoblot of AMFR; format: cell-based, human; settings: enzalutamide treatment, LAPC4 cells and patient tissues
Protocol: For protein analysis, immunoblots were performed as described previously. Li et al., J Clin Endocrinol Metab 98, E1189-1197 (2013). Briefly, total cellular protein was extracted with ice cold RIPA lysis buffer (Sigma-Aldrich) containing protease inhibitors (Roche). 30-50 μg protein was separated by 8% SDS-PAGE gel and then transferred to a nitrocellulose membrane (Millipore). After incubating with the anti-11β-HSD2 antibody (Santa Cruz; 1:3000), anti-11β-HSD1 antibody (Santa Cruz; 1:1000), GR antibody (BD Biosciences; 1:1000), anti-Erlin-2 antibody (Cell Signaling Technology: 1:1000) or anti-AMFR antibody (Proteintech; 1:1000) overnight at 4° C., the appropriate secondary antibody was incubated for 1 hour at room temperature. The chemiluminescent detection system (Thermo Scientific) was used to detect the bands with peroxidase activity. An anti-β-actin antibody (Sigma-Aldrich; 1:5000) was used as a control for sample loading.

[6] = long-term Enz treatment, LAPC4 and VCaP
[7] = enzalutamide-treated 11β-HSD2 tumors
[8] = enzalutamide-treated vector tumors

CNC(=O)c1ccc(N2C(=S)N(c3ccc(C#N)c(C(F)(F)F)c3)C(=O)C2(C)C)cc1F [enzalutamide] was tested, and the “cell growth / viability” value ([1]; LAPC4, after sustained (long-term) enzalutamide treatment) was “Growth recovers”, the cell viability ([1]; LAPC4 in vitro, short-term treatment) was “suppresses LAPC4 viability” and the “expression of AR-regulated genes” value [2] was “suppression of AR-regulated genes”. For the same compound, the “expression of GR, HSD11B2 or HSD11B1 transcripts” value ([3]; LAPC4, 24 hours (acute)) was “no acute effect on expression of GR, HSD11B2 or HSD11B1”, the GR transcript [3, 6] was “GR transcript increases” and the “HSD11B2 mRNA” value [3, 6] was “No suppression of HSD11B2 mRNA”. The “percentage of tumor corticosterone of corticosterone plus 11-dehydrocorticosterone” value [4, 7] was 33%, the tumor corticosterone concentration [4, 7] was 15.1 pmol/g and the “percentage of tumor corticosterone of corticosterone plus 11-dehydrocorticosterone” value [4, 8] was 59%. For the same compound, the tumor corticosterone concentration [4, 8] was 44.5 pmol/g and the AMFR expression [5] was “did not consistently increase AMFR expression”.
